Measurements from ChEMBL document CHEMBL3886800, “Disubstituted 3,4-diamino-3-cyclobutene-1,2-dione compounds for use in the treatment of chemokine-mediated diseases” (2016).

Key:
[1] = molecular target: T1, C-X-C chemokine receptor type 2 (Homo sapiens, UniProt P25025); assay: (§1) In Vitro Affinity Assay: ⿿PathHunter HEK293-CXCR2⿝ or ⿿U2OS hCXCR1 β-arrestin⿝ cells (DiscoveRx Corporation) were seeded overnight at 10 000 cells/well (384-well format) in 20 μl of Opti MEM I medium. A preincubation with the antagonist or the vehicle for 30 min at 37° C. and 5% CO2 was followed by 60 minutes of stimulation with CXCL8 at 37° C. and 5% CO2. The cells were then placed at ambient temperature for 30 minutes. The PathHunter detection reagent (DiscoveRx Corporation) was added. After incubation for 60 min at ambient temperature, the […] during the β-arrestin-CXCR2 interaction was measured for 0.3 s in an Envision 2102 Multilabel Reader (PerkinElmer Life and Analytical Sciences).
T1 sequence (P25025 whole entry): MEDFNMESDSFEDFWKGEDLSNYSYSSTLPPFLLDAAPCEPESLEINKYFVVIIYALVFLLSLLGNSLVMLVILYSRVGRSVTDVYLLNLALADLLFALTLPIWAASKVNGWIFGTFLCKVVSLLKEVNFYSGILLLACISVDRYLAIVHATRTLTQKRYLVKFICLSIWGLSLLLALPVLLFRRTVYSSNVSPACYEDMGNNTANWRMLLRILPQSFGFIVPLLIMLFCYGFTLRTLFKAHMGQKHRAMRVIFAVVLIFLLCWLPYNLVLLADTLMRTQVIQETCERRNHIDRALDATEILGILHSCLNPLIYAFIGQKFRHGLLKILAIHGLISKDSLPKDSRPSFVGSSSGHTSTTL

[2] = molecular target: T2, C-X-C chemokine receptor type 1 (Homo sapiens, UniProt P25024); assay: as §1
T2 sequence (P25024 whole entry): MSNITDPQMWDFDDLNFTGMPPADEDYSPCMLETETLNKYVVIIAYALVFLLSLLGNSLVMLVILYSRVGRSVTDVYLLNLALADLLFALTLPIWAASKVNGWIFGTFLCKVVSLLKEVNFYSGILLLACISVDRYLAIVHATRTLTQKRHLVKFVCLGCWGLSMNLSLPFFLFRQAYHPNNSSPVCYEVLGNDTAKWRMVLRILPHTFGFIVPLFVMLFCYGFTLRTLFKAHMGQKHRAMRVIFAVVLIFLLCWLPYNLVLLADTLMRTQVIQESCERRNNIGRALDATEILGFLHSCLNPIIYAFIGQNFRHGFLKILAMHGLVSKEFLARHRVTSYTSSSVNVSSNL

Row | IC50 [1] [nM] | IC50 [2] [nM] | Structure (SMILES)
1 | 69 | 113 | Cc1ccc(C(Nc2c(Nc3ccc(Cl)c(C(=O)N(C)C)c3O)c(=O)c2=O)C2CCCS2)o1 (single isomer, unassigned)
2 | 23 | 652 | Cc1ccc(C(Nc2c(Nc3cccnc3O)c(=O)c2=O)C2CCCS2)o1 (centres undefined)
